Test [1] relates to Adjuvant Induced Arthritis in Rats. In words: Anti-inflammatory and analgesic effects on adjuvant induced arthritis in rats. Set-up: Percent Effectiveness: scale not given: direction of the effect not stated beside the values. As to conditions: Lewis male rats, oral 0.3 mg/kg once a day, day 9 to day 17 after adjuvant; for Percent paw edema suppression: measured at day 18, means of 8˜10 cases; for Percent Effectiveness: pain threshold at day 18, 8˜10 cases. Type of test: in vivo, rat. The protocol: Test for Evaluating Anti-Inflammatory and Analgesic Effects on Adjuvant Induced Arthritis in Rats
The animals were Lewis male rats (6-week old). An adjuvant solution (2 mg/mL) was administered intradermally to the footpad of the left hind leg of each animal at a dose of 0.1 mL to create an arthritis model. Paw volume was measured with a paw volume meter (PLETHYSMOMETER, Ugo Basile Model 7141). For evaluation of pain thresholds, a probe fitted to the sensor site of Pressure Application Measurement (PAM, Ugo Basile Model 38500) was used to turn the foot sole of a rat upward (dorsiflexion) until it gave an indication of pain or discomfort (vocalization) and the load being applied was measured. Eight days after the treatment with the adjuvant, the paw volume and pain threshold of each treated foot were measured and the animals were grouped for oral administration of each test compound (0.3 mg/kg) which was performed for nine days on a once-a-day schedule starting at day 9 and ending at day 17 after the treatment. At day 18 after the treatment, the paw volume and pain threshold of each […] foot were measured.
The anti-inflammatory effect of the test compound was confirmed using the percent paw edema suppression as an indicator. Percent paw edema suppression (%)=[(paw volume change in the control group−paw volume in each treatment group)/(paw volume change in the control group−paw volume change in the non-treatment group)]×100
As for the analgesic effect, the animals in the test compound group that had nociceptive thresholds greater than [(the mean nociceptive threshold of the control group)+2×standard deviation] were found “effective animals” and the percent effectiveness of each compound was calculated.

In the next test the target is T1, rat EP4 receptor (Rattus norvegicus, UniProt P43114).
T1 construct: its translated region was integrated into the expression vector pShooter (Invitrogen); expressed in transfected cells; host or cells: COS-7 cells (Cercopithecus aethiops kidney), transiently co-transfected with ratEP4-pShooter and a CRE-LUC reporter vector
In words: Rat EP4 receptor antagonistic action by the reporter assay method. In kind it is cell-based. As to conditions: COS-7 cells expressing rat EP4 receptor, CRE-LUC reporter, PGE2 1×10^−8 mol/L; geometric mean of three cases; read-out: Intensity of EP4 Receptor Antagonistic Activity IC50. As to the method: Test for Evaluating the Rat EP4 Receptor Antagonistic Action by the Reporter Assay Method
The first step was the cloning of the rat EP4 receptor. Total RNA was prepared from the kidney extracted from rats. With the total RNA used as a template, the rat EP4 receptor gene was cloned by RT-PCR and its translated region was integrated into the expression vector pShooter (Invitrogen) to prepare a rat EP4 receptor expressing vector (ratEP4-pShooter).
In the next step, rat EP4 receptor expressing cells for use in the reporter assay were prepared. COS-7 cells (derived from the kidney of Cercopithecus aethiops) were cultured in Dulbecco's Modified Eagle Medium (DMEM) (supplemented with 10% fetal bovine serum) in a 75-cm^2 cell culture flask. After the cells proliferated to a subconfluent state, the medium was removed and rinsed with phosphate buffered physiological saline (PBS). Trypsin-EDTA and a growth medium were used to recover the cells, which were then centrifuged. The supernatant was removed and the cells were suspended in DMEM. The cell suspension was seeded on a 96-well plate at a density of 2×10^4 cells/100 μL/well and cultured. The DMEM was mixed with Plus reagent, Lipofectamine 2000, the rat EP4 receptor expressing vector (ratEP4-pShooter) and a CRE-LUC reporter vector (CLONTECH) to prepare a transfection solution. Three hours after the seeding of the cells, 50 μL of the medium was removed and 50 μL/well of the transfection solution was added, followed by culture overnight. Negative control cells were prepared using pShooter in place of the receptor expressing vector. The cells were seeded on a 96-well plate for reporter assay and cultured.
The medium on the 96-well plate was removed and a test compound was added in an amount of 50 μL/well. After ca. 30-min culture, a PGE2 solution (2×10^−8 mol/L) was added in an amount of 50 μL/well (final concentration of PGE2: 1×10^−8 mol/L). As a PGE2-free control, there were provided wells to which a test medium had been added in an amount of 50 μL/well. About three hours later, the medium was removed and reporter assay was performed in accordance with the protocol accompanying the Steady-Glo Luciferase Assay System kit. Luminous intensity was measured with a microplate reader (Fusion-FPα, PerkinElmer) and EP4 receptor antagonistic activity (%) was determined by the following calculation formula: EP4 receptor antagonistic activity (%)=[1−(RLU(A,X)−RLU(0))/(RLU(PGE2)−RLU(0))]×100 RLU(A,X): Luminous intensity expressed in relative luminescence units (RLU) for the case where the test compound (A) X (mol/L) and PGE2 10^−8 mol/L were both added; RLU(PGE2): Luminous intensity for the case where only PGE2 10^−8 mol/L was added; RLU(0): Luminous intensity for the case where neither test compound nor PGE2 was added.
In addition, a dose-response curve was plotted from the EP4 receptor antagonistic activities at varying concentrations of each test compound and using the following approximation formula, the IC50 (the concentration of the test compound required to inhibit the PGE2 inducing activity by 50%) was calculated to determine the intensity of the compound's EP4 receptor antagonistic activity. The results are shown in Table 2: Y=Bottom+(Top−Bottom)/{1+10^(Log IC50−Log X)} Bottom: 0 Top: 100 X: Concentration of the test compound (mol/L) Y: EP4 receptor antagonistic activity (%)
Background: A reporter such as luciferase makes a cellular process visible.

Test [2] has as its system Carrageenin Induced Hyperalgesia in Rats. Description: Analgesic effect on carrageenin induced hyperalgesia in rats. In kind it is in vivo. To be noted: Rattus norvegicus, 2 h; SD male rats, oral 10 mg/5 mL/kg six hours after carrageenin, nociceptive threshold (Randall-Selitto) two hours after administration; 5˜7 cases; read-out: Percent Effectiveness. As to the method: Test for Evaluating Analgesic Effect on Carrageenin Induced Hyperalgesia in Rats
The animals were SD male rats (5-week old). Before treatment with carrageenin (or distilled water), the rats were measured for nociceptive thresholds in their right hind leg by the Randall-Selitto method and divided into a carrageenin treatment group and a non-treatment group to provide uniformity in nociceptive threshold. The carrageenin treatment group was given a 1 w/v % carrageenin solution and the non-treatment group given distilled water, each administered subcutaneously to the footpad of the right hind leg at a dose of 0.1 mL. Five hours after the treatment, the nociceptive thresholds were measured and the individuals with decreased thresholds were selected and grouped such that there was no inter-group difference in threshold. Six hours after the treatment, each test compound was orally administered at a dose of 10 mg/5 mL/kg. The control group was administered 0.5% methylcellulose. Two hours after the administration of the test compound (8 hours after the treatment), the nociceptive threshold was measured. The animals in the test compound group that had nociceptive thresholds greater than [(the mean nociceptive threshold of the control group)+2×standard deviation] were found “effective animals” and the percent effectiveness of each compound was calculated.

The term IC50 denotes the concentration that gives 50% inhibition.

T1 sequence (P43114 whole entry): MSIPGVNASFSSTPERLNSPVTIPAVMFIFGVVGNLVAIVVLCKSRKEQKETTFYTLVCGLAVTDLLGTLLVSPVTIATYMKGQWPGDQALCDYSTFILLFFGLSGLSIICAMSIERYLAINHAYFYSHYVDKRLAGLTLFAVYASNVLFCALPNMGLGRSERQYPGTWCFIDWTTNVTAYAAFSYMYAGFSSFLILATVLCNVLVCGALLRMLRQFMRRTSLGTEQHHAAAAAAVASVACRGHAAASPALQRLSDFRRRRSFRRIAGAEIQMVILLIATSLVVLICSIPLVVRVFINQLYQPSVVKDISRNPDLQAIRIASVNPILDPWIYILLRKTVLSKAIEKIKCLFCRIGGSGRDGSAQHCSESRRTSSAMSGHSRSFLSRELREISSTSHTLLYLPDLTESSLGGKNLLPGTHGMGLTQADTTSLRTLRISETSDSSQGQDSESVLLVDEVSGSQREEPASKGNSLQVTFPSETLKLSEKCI

Take `CC(C)(O)C#Cc1nc(Cl)n(Cc2ccc(C(F)(F)F)cc2)c1C(=O)NC[C@H]1CC[C@H](C(=O)O)CC1` [Compound 1, trans-4-({2-Chloro-4-(3-hydroxy-3-methyl-1-butyn-1-yl)-1-[4-(trifluoromethyl)benzyl]-1H-imidazole-5-carboxamido}methyl)cyclohexanecarboxylic acid]: in test [1], the “Percent paw edema suppression” value turned out to be 54% and the “Percent Effectiveness” value is recorded as 30%. For the same compound, at rat EP4 receptor, the IC50 came to 23.8 nM.

Take `CC(C)(O)C#Cc1nc(Cl)n(Cc2ccc(C(F)(F)F)cc2)c1C(=O)NCc1ccc(C(=O)O)cc1` [Compound 2, 4-({2-Chloro-4-(3-hydroxy-3-methyl-1-butyn-1-yl)-1-[4-(trifluoromethyl)benzyl]-1H-imidazole-5-carboxamido}methyl)benzoic acid]: in test [1], the “Percent paw edema suppression” value was 21% and the “Percent Effectiveness” value is reported as 38%. Moreover, the IC50 on rat EP4 receptor stood at 14.1 nM.

In the case of `CC(C)(O)C#Cc1nc(Cl)n(Cc2ccc(C(F)(F)F)cc2)c1C(=O)NC1(c2ccc(C(=O)O)cc2)CC1` [Compound 4], the IC50 at rat EP4 receptor amounted to 3 nM.

As to `O=C(NCC1CCC(C(=O)O)CC1)c1c(C#CC2(O)CCCC2)nc(Cl)n1Cc1ccc(C(F)(F)F)cc1` (stereo not shown) [Compound 16], the IC50 at rat EP4 receptor is 7.3 nM.

For the compound `CC(C)(O)C#Cc1nc(C2CC2)n(Cc2ccc(C(F)(F)F)cc2)c1C(=O)NCc1ccc(C(=O)O)cc1` [Compound 20, 4-({2-cyclopropyl-4-(3-hydroxy-3-methyl-1-butyn-1-yl)-1-[4-(trifluoromethyl)benzyl]-1H-imidazole-5-carboxamido}methyl)benzoic acid], the concentration for half-maximal inhibition (IC50) at rat EP4 receptor worked out at 64.6 nM.

With `Cc1ccc(Cn2c(Cl)nc(C#CC(C)(C)O)c2C(=O)NC[C@H]2CC[C@H](C(=O)O)CC2)cc1` [Compound 21, trans-4-{[2-Chloro-4-(3-hydroxy-3-methyl-1-butyn-1-yl)-1-(4-methylbenzyl)-1H-imidazole-5-carboxamido]methyl}cyclohexanecarboxylic acid], in test [1], the “Percent paw edema suppression” value was determined as 53% and the “Percent Effectiveness” value is 20%. Moreover, the IC50 on rat EP4 receptor turned out to be 26.4 nM.

As to `COC(C)(C)C#Cc1nc(Cl)n(Cc2ccc(C(F)(F)F)cc2)c1C(=O)NCc1ccc(C(=O)O)cc1` [Compound 41], the IC50 on rat EP4 receptor was 8.4 nM.

`CC(C)(O)C#Cc1nc(Cl)n(CCOc2ccc(Cl)cc2)c1C(=O)NCc1ccc(C(=O)O)cc1` [Compound 44]: on rat EP4 receptor, the IC50 stood at 17.5 nM. The responders at 10 mg/kg in test [2] worked out at 50%.

`COC(C)(C)C#Cc1nc(Cl)n(CCOc2ccc(Cl)cc2)c1C(=O)NCc1ccc(C(=O)O)cc1` [Compound 45]: at rat EP4 receptor, the IC50 came to 5.1 nM. Besides, in test [2], the responders at 10 mg/kg stood at 50%.

`COC(C)(C)C#Cc1nc(Cl)n(Cc2ccc(OC(F)(F)F)cc2)c1C(=O)N[C@@H](C)c1ccc(C(=O)O)cc1` [Compound 50]: on rat EP4 receptor, the IC50 worked out at 1.1 nM.

With `COC(C)(C)C#Cc1nc(Cl)n(Cc2ccc(OC(F)F)cc2)c1C(=O)NCC1CCC(C(=O)O)CC1` (stereo not shown) [Compound 51], the IC50 at rat EP4 receptor was found to be 7.9 nM.

Consider `COC(C)(C)C#Cc1nc(Cl)n(Cc2ccc(OC(F)F)cc2)c1C(=O)NCc1ccc(C(=O)O)cc1` [Compound 52], for which the IC50 at rat EP4 receptor was determined as 7.9 nM.

`COC(C)(C)C#Cc1nc(Cl)n(Cc2cccc(OC(F)F)c2)c1C(=O)NCc1ccc(C(=O)O)cc1` [Compound 54]: the IC50 at rat EP4 receptor turned out to be 16.1 nM.

Regarding `COC(C)(C)C#Cc1nc(Cl)n(Cc2ccc(F)cc2)c1C(=O)NCc1ccc(C(=O)O)cc1` [Compound 56, 4-{[2-Chloro-1-(4-fluorobenzyl)-4-(3-methoxy-3-methyl-1-butyn-1-yl)-1H-imidazole-5-carboxamido]methyl}benzoic acid], the IC50 at rat EP4 receptor amounted to 49.9 nM.

As to `COC(C)(C)C#Cc1nc(Cl)n(Cc2ccc(C(F)F)cc2)c1C(=O)NC[C@H]1CC[C@H](C(=O)O)CC1` [Compound 60, trans-4-({2-Chloro-1-[4-(difluoromethyl)benzyl]-4-(3-methoxy-3-methyl-1-butyn-1-yl)-1H-imidazole-5-carboxamido}methyl)cyclohexanecarboxylic acid], the IC50 on rat EP4 receptor was found to be 10.2 nM.

Turning to `CC(C)(C#Cc1nc(Cl)n(CCOc2ccc(Cl)cc2)c1C(=O)NC[C@H]1CC[C@H](C(=O)O)CC1)CO` [Compound 61, Trans-4-({2-chloro-1-[2-(4-chlorophenoxy)ethyl]-4-(4-hydroxy-3,3-dimethyl-1-butyn-1-yl)-1H-imidazole-5-carboxamido}methyl)cyclohexanecarboxylic acid], on rat EP4 receptor, the IC50 was found to be 26.6 nM.

`COC(C)(C)C#Cc1nc(C(F)F)n(CCOc2ccc(Cl)cc2)c1C(=O)NCc1ccc(C(=O)O)cc1` [Compound 64]: on rat EP4 receptor, the IC50 came out at 26.1 nM.

`COC(C)(C)C#Cc1nc(Cl)n(Cc2ccc(C)cc2)c1C(=O)NC1(c2ccc(C(=O)O)cc2)CC1` [Compound 67, 4-(1-{2-Chloro-4-(3-methoxy-3-methyl-1-butyn-1-yl)-1-(4-methylbenzyl)-1H-imidazole-5-carboxamido}cyclopropyl)benzoic acid]: the IC50 on rat EP4 receptor is 2.1 nM. Further, the responders at 10 mg/kg in test [2] is 100%.

`Cc1ccc(Cn2c(Cl)nc(C#CC(C)(C)O)c2C(=O)NC2(c3ccc(C(=O)O)cc3)CC2)cc1` [Compound 68]: the IC50 at rat EP4 receptor came out at 6.1 nM.

These data come from US9855257B2, “4-alkynyl imidazole derivative and medicine comprising same as active ingredient” (KAKEN PHARMACEUTICAL CO., LTD., priority 2013, dated 2018).
